Data reported in patent US11584748B2, “Spirocyclic compounds” (priority 2018, dated 2023).

The compounds below were run against hCereblon(M1-L442)_hDDB1(M1-H1140) (Homo sapiens (Human), UniProt Q96SW2) (assay: Fluorescence direct binding (tryptophan fluorescence titration)). Conditions: 20° C., excitation 280 nm, emission 340 nm, 50 mM Hepes 7.4 200 mM NaCl; read-out: Fluorescence h-Cereblon_DDB1 Mean Kd_EQ.
Chain of hCereblon(M1-L442)_hDDB1(M1-H1140) (Q96SW2 whole entry, looked up): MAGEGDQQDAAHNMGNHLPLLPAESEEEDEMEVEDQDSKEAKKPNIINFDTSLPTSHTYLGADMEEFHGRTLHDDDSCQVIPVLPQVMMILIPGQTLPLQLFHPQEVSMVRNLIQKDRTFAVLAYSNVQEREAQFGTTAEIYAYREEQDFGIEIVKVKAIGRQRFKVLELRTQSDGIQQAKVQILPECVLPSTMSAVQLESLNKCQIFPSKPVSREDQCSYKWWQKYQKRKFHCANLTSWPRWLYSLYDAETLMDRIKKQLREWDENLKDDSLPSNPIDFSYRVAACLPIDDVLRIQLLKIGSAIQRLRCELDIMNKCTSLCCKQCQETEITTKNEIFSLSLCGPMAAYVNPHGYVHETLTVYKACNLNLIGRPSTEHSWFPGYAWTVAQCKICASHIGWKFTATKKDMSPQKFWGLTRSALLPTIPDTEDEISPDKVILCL
Chain of hCereblon(M1-L442)_hDDB1(M1-H1140) (Q16531 whole entry partner, looked up): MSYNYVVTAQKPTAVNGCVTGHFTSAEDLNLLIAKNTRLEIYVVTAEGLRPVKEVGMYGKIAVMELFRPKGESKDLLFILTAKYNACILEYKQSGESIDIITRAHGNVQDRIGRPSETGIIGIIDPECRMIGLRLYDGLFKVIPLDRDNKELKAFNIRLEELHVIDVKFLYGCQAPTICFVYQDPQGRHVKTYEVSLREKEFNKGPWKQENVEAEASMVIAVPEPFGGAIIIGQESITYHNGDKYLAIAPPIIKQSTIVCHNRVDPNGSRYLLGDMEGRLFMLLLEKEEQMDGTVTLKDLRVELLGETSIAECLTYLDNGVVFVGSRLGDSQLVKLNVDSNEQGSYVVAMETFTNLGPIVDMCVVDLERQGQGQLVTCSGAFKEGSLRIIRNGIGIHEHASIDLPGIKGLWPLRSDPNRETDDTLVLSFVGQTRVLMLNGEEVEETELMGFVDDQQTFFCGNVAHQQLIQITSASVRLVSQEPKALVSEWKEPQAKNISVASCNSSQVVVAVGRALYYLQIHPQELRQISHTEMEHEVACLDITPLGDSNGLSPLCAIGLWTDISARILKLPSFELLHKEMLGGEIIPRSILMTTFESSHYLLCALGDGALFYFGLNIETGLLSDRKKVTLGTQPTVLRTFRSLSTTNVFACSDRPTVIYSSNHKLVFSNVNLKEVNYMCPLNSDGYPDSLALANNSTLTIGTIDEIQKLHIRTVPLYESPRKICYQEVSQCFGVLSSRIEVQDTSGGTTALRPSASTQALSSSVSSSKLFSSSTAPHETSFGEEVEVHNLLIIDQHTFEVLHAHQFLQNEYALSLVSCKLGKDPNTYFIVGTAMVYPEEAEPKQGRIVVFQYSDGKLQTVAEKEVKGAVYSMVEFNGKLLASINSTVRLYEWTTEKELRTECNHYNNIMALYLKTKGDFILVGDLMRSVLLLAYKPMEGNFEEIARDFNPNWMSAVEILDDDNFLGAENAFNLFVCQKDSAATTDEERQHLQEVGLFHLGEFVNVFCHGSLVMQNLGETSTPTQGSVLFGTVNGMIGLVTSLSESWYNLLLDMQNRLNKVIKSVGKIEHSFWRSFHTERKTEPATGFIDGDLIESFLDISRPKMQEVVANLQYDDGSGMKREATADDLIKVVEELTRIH
Experimental: Fluorescence Direct Binding Protocol
Determination of the affinities of compounds to protein containing one or more tryptophan is measurable by monitoring the fluorescence emission in direct mode. The measurements, depending on the protein available amounts, were performed either manually in a cuvette on ISS-PCI photon counting spectrofluorometer or automatically in well plates on a fluorescence plate reader device. Fluorescence titrations were performed at 20° C. in the chosen binding assay buffer by using a defined constant protein concentration against ligand concentration variations. Small aliquots of known ligand concentration solubilized in DMSO were added and the fluorescence, excited at 280 nm, was recorded at 340 nm.
`O=C1CCC2(CCN(c3nc4cc([N+](=O)[O-])ccc4[nH]3)C2)C(=O)N1` (single isomer, unassigned) [Example 33, 2-(5-nitro-1H-benzo[d]imidazol-2-yl)-2,7-diazaspiro[4.5] decane-6,8-dione] showed a Kd of under 1 nM.
With `O=C1CCC2(CCN(c3nc4cc([N+](=O)[O-])ccc4[nH]3)C2)C(=O)N1` (single isomer, unassigned) [Example 34, 2-(5-nitro-1H-benzo[d]imidazol-2-yl)-2,7-diazaspiro[4.5] decane-6,8-dione] the Kd was 5 nM.
In the case of `O=C1CC2(CCN(C(=O)[C@H]3CCCc4ccccc43)CC2)C(=O)N1` (single isomer, unassigned) [Example 77], the Kd is reported as 6 nM.
`O=C1CC2(CCN(C(=O)[C@@H]3CCCc4ccccc43)CC2)C(=O)N1` (single isomer, unassigned) [Example 78] gave a Kd of 4 nM.
Compound `Cc1sc2c(c1C)C(c1ccc(Cl)cc1)=NC(CC(=O)NCCCCCCCC(=O)Nc1cccc(C(=O)N3CCC4(CCC(=O)NC4=O)C3)c1)c1nnc(C)n1-2` (stereo in doubt) [Example 57, 8-(2-((R)-4-(4-chlorophenyl)-2,3,9-trimethyl-6H-thieno[3,2-f] [1,2,4]triazolo [4,3-a] [1,4]diazepin-6-yl)acetamido)-N-(3-(6,8-dioxo-2,7-diazaspiro[4.5]decane-2-carbonyl)phenyl) octanamide] has a Kd of 106 nM.
`O=C1CCC2(CCNC2)C(=O)N1` (stereo not shown) [Example 1, 2,7-diazaspiro [4.5]decane-6,8-dione] showed a Kd of 84 nM.
Work on `CN1CC2(CCC(=O)NC2=O)CC1=O` (stereo not shown) [Example 2, 2-methyl-2,7-diazaspiro[4.5] decane-3,6,8-trione] yielded a Kd of 159 nM.
In the case of `COC(=O)c1ccc(N2CCC3(CCC(=O)NC3=O)C2)nc1` (stereo not shown) [Example 6, methyl 6-(6,8-dioxo-2,7-diazaspiro[4.5]decan-2-yl) nicotinate], the Kd is reported as under 1 nM.
In the case of `O=C1CCC2(CCN(c3nc4cc([N+](=O)[O-])ccc4[nH]3)C2)C(=O)N1` (stereo not shown) [Example 9, 2-(5-nitro-1H-benzo[d]imidazol-2-yl)-2,7-diazaspiro [4.5]decane-6,8-dione], the Kd is reported as 8 nM.
In the case of `O=C1CCC2(CCN(c3nc4ccccc4s3)C2)C(=O)N1` (stereo not shown) [Example 12, 2-(benzo[d]thiazol-2-yl)-2,7-diazaspiro [4.5]decane-6,8-dione], the Kd is reported as 1 nM.
In the case of `COC(=O)c1cccc2nc(N3CCC4(CCC(=O)NC4=O)C3)[nH]c12` (stereo not shown) [Example 13, methyl 2-(6,8-dioxo-2,7-diazaspiro[4.5]decan-2-yl)-1H-benzo[d]imidazole-7-carboxylate], the Kd is reported as 96 nM.
Compound `O=C1CCC2(CCN(c3ccc4ccccc4n3)C2)C(=O)N1` (stereo not shown) [Example 15, 2-(quinolin-2-yl)-2,7-diazaspiro[4.5] decane-6,8-dione] has a Kd of 6 nM.
For `Cn1c(N2CCC3(CCC(=O)NC3=O)C2)nc2ccccc21` (stereo not shown) [Example 19, 2-(1-methyl-1H-benzo[d]imidazol-2-yl)-2,7-diazaspiro[4.5] decane-6,8-dione], the Kd was 30 nM.
`O=C1CCC2(CCN(c3nc4cnccc4s3)C2)C(=O)N1` (stereo not shown) [Example 20, 2-(thiazolo[4,5-c]pyridin-2-yl)-2,7-diazaspiro[4.5] decane-6,8-dione] gave a Kd of 6 nM.
`COC(=O)c1ccc2nc(N3CCC4(CCC(=O)NC4=O)C3)sc2c1` (stereo not shown) [Example 21, methyl 2-(6,8-dioxo-2,7-diazaspiro [4.5]decan-2-yl)benzo[d]thiazole-6-carboxylate] was tested, and the Kd was 8 nM.
In the case of `COC(=O)c1csc(N2CCC3(CCC(=O)NC3=O)C2)n1` (stereo not shown) [Example 22, methyl 2-(6,8-dioxo-2,7-diazaspiro[4.5]decan-2-yl)thiazole-4-carboxylate], the Kd is reported as 44 nM.
`COC(=O)c1cnc(N2CCC3(CCC(=O)NC3=O)C2)s1` (stereo not shown) [Example 23, methyl 2-(6,8-dioxo-2,7-diazaspiro[4.5]decan-2-yl)thiazole-5-carboxylate] showed a Kd of 8 nM.
`CC(C)(C)OC(=O)c1ccc(N2CCC3(CCC(=O)NC3=O)C2)nc1` (stereo not shown) [Example 24, tert-butyl 6-(6,8-dioxo-2,7-diazaspiro[4.5]decan-2-yl) nicotinate] was tested, and the Kd was 2 nM.
In the case of `O=C1CCC2(CCN(C(=O)c3cccc4c3CC(=O)N4)C2)C(=O)N1` (stereo not shown) [Example 27, 2-(2-oxoindoline-4-carbonyl)-2,7-diazaspiro[4.5] decane-6,8-dione], the Kd is reported as 47 nM.
Work on `COC(=O)c1ccc(C(=O)N2CCC3(CCC(=O)NC3=O)C2)cc1` (stereo not shown) [Example 28, methyl 4-(6,8-dioxo-2,7-diazaspiro[4.5]decane-2-carbonyl) benzoate] yielded a Kd of 13 nM.
With `O=C1CCC2(CCN(C(=O)c3ccc4scnc4c3)C2)C(=O)N1` (stereo not shown) [Example 29, 2-(benzo[d]thiazole-5-carbonyl)-2,7-diazaspiro[4.5] decane-6,8-dione] the Kd was under 1 nM.
With `O=C1CCC2(CCN(c3ccc([N+](=O)[O-])cn3)C2)C(=O)N1` (stereo not shown) [Example 30, 2-(5-nitropyridin-2-yl)-2,7-diazaspiro [4.5]decane-6,8-dione] the Kd was 1 nM.
For `COC(=O)c1cccc(N2CCC3(CCC(=O)NC3=O)C2)n1` (stereo not shown) [Example 32, methyl 6-(6,8-dioxo-2,7diazaspiro[4.5]decan-2-yl)picolinate], the Kd was 1 nM.
`CC(=O)N1CCc2c(C(=O)N3CCC4(CCC(=O)NC4=O)C3)cccc21` (stereo not shown) [Example 35, 2-(1-acetylindoline-4-carbonyl)-2,7-diazaspiro[4.5] decane-6,8-dione] gave a Kd of under 1 nM.
For `O=C1CCC2(CCN(C(=O)c3ccccc3)C2)C(=O)N1` (stereo not shown) [Example 36, 2-benzoyl-2,7-diazaspiro[4.5] decane-6,8-dione], the Kd was under 1 nM.
`CC(=O)Nc1cccc(C(=O)N2CCC3(CCC(=O)NC3=O)C2)c1` (stereo not shown) [Example 37, N-(3-(6,8-dioxo-2,7-diazaspiro[4.5]decane-2-carbonyl)phenyl)acetamide] was tested, and the Kd was 6 nM.
In the case of `O=C1CCC2(CCN(C(=O)c3cccc4[nH]ncc34)C2)C(=O)N1` (stereo not shown) [Example 38, 2-(1H-indazole-4-carbonyl)-2,7-diazaspiro[4.5] decane-6,8-dione], the Kd is reported as 84 nM.
In the case of `O=C1CCC2(CCN(C(=O)c3cccc4c3CCN4)C2)C(=O)N1` (stereo not shown) [Example 40, 2-(indoline-4-carbonyl)-2,7-diazaspiro[4.5] decane-6,8-dione], the Kd is reported as 6 nM.
Work on `O=C1CCC2(CCN(C(=O)c3ccc4c(c3)NCC4)C2)C(=O)N1` (stereo not shown) [Example 41, 2-(indoline-6-carbonyl)-2,7-diazaspiro[4.5] decane-6,8-dione] yielded a Kd of 75 nM.
For `CC(=O)N1CCc2ccc(C(=O)N3CCC4(CCC(=O)NC4=O)C3)cc21` (stereo not shown) [Example 42, 2-(1-acetylindoline-6-carbonyl)-2,7-diazaspiro[4.5] decane-6,8-dione], the Kd was 8 nM.
`O=C1CCC2(CCN(C(=O)c3coc4ccccc34)C2)C(=O)N1` (stereo not shown) [Example 44, 2-(benzofuran-3-carbonyl)-2,7-diazaspiro[4.5] decane-6,8-dione] was tested, and the Kd was 9 nM.
`O=C1CCC2(CCN(C(=O)c3cnn4ccccc34)C2)C(=O)N1` (stereo not shown) [Example 45, 2-(pyrazolo[1,5-a]pyridine-3-carbonyl)-2,7-diazaspiro[4.5] decane-6,8-dione] showed a Kd of under 1 nM.
Compound `O=C1CCC2(CCN(C(=O)c3ccc4ncoc4c3)C2)C(=O)N1` (stereo not shown) [Example 46, 2-(benzo[d]oxazole-6-carbonyl)-2,7-diazaspiro[4.5] decane-6,8-dione] has a Kd of 10 nM.
`O=C1CCC2(CCN(C(=O)c3ccc4c(c3)CCN4)C2)C(=O)N1` (stereo not shown) [Example 47, 2-(indoline-5-carbonyl)-2,7-diazaspiro[4.5] decane-6,8-dione] was tested, and the Kd was 4 nM.
In the case of `CC(=O)Nc1nc2cc(C(=O)N3CCC4(CCC(=O)NC4=O)C3)ccc2s1` (stereo not shown) [Example 50, N-(5-(6,8-dioxo-2,7-diazaspiro[4.5]decane-2-carbonyl)benzo[d]thiazol-2-yl)acetamide], the Kd is reported as 45 nM.
In the case of `CC(=O)Nc1nc2ccc(C(=O)N3CCC4(CCC(=O)NC4=O)C3)cc2s1` (stereo not shown) [Example 51, N-(6-(6,8-dioxo-2,7-diazaspiro[4.5]decane-2-carbonyl)benzo[d]thiazol-2-yl)acetamide], the Kd is reported as 94 nM.
`CC(=O)N1CCc2cc(C(=O)N3CCC4(CCC(=O)NC4=O)C3)ccc21` (stereo not shown) [Example 52, 2-(1-acetylindoline-5-carbonyl)-2,7-diazaspiro[4.5] decane-6,8-dione] was tested, and the Kd was 41 nM.
`CC(C)(C)OC(=O)Nc1nc2cc(C(=O)N3CCC4(CCC(=O)NC4=O)C3)ccc2s1` (stereo not shown) [Example 53, tert-butyl (5-(6,8-dioxo-2,7-diazaspiro[4.5]decane-2-carbonyl)benzo[d]thiazol-2-yl)carbamate] gave a Kd of 6 nM.
`CC(C)(C)OC(=O)Nc1nc2ccc(C(=O)N3CCC4(CCC(=O)NC4=O)C3)cc2s1` (stereo not shown) [Example 54, tert-butyl (6-(6,8-dioxo-2,7-diazaspiro[4.5]decane-2-carbonyl)benzo[d]thiazol-2-yl)carbamate] was tested, and the Kd was 4 nM.
Compound `Nc1nc2ccc(C(=O)N3CCC4(CCC(=O)NC4=O)C3)cc2s1` (stereo not shown) [Example 55, 2-(2-aminobenzo [d]thiazole-6-carbonyl)-2,7-diazaspiro [4.5]decane-6,8-dione] has a Kd of 26 nM.
`O=C1NC(=O)C2(CCN(C(=O)[C@H]3CCCc4ccccc43)CC2)N1` [Example 58, (S)-8-(1,2,3,4-tetrahydronaphthalene-1-carbonyl)-1,3,8-triazaspiro[4.5]decane-2,4-dione] was tested, and the Kd was 4 nM.
`O=C1NC(=O)C2(CCN(C(=O)[C@@H]3CCCc4ccccc43)CC2)N1` [Example 59, (R)-8-(1,2,3,4-tetrahydronaphthalene-1-carbonyl)-1,3,8-triazaspiro[4.5]decane-2,4-dione] showed a Kd of 5 nM.
Work on `O=C1NC(=O)C2(CCN(C(=O)c3ccccc3)CC2)N1` [Example 60, 8-benzoyl-1,3,8-triazaspiro[4.5]decane-2,4-dione] yielded a Kd of 2 nM.
Compound `O=C1NC(=O)C2(CCN(c3nc4ccccc4s3)CC2)N1` [Example 61, 8-(benzo[d]thiazol-2-yl)-1,3,8-triazaspiro[4.5]decane-2,4-dione] has a Kd of 2 nM.
`O=C1NC(=O)C2(CCN(C(=O)c3coc4ccccc34)CC2)N1` [Example 66, 8-(benzofuran-3-carbonyl)-1,3,8-triazaspiro[4.5] decane-2,4-dione] was tested, and the Kd was 1 nM.
With `O=C1NC(=O)C2(CCN(C(=O)c3cnn4ccccc34)CC2)N1` [Example 67, 8-(pyrazolo[1,5-a]pyridine-3-carbonyl)-1,3,8-triazaspiro[4.5] decane-2,4-dione] the Kd was under 1 nM.
